# Results reported in ChEMBL document CHEMBL1142505, “Synthesis and antitubercular activity of ferrocenyl diaminoalcohols and diamines” (2008).
# System: Mycobacterium tuberculosis
# Assay: Antitubercular activity against Mycobacterium tuberculosis H37Rv after 2 days by mycobacteria growth indicator tube system
# Format: functional
# Details: 48 h
row,Compound,MIC [µg/mL]
1,c1ccc(CNCCNCc2ccccc2)cc1,> 64
2,CC(CNCc1ccccc1)NCc1ccccc1 (stereo not drawn),> 64
3,CC[C@@H](CO)NCCN[C@@H](CC)CO [ETHAMBUTOL],2
